Measurements from ChEMBL document CHEMBL3045770, “Design and synthesis of some thieno[2,3-c]pyridazine derivatives of expected anticancer activity” (2013).

How the values were obtained:
Type in all cases: functional
EKVX = assay: Cytotoxicity against Homo sapiens (human) EKVX assessed as cell growth at 10 uM after 48 hr by SRB assay relative to control; conditions: read-out: Activity
SK-MEL-5 = assay: Cytotoxicity against Homo sapiens (human) SK-MEL-5 assessed as cell growth at 10 uM after 48 hr by SRB assay relative to control; conditions: SK-MEL-5, 48 h, read-out: Activity
HL-60(TB) = assay: Cytotoxicity against Homo sapiens (human) HL-60(TB) assessed as cell growth at 10 uM after 48 hr by SRB assay relative to control; conditions: HL-60, 48 h, read-out: Activity
HT-29 = assay: Cytotoxicity against Homo sapiens (human) HT-29 assessed as cell growth at 10 uM after 48 hr by SRB assay relative to control; conditions: HT-29, 48 h, read-out: Activity
ACHN = assay: Cytotoxicity against Homo sapiens (human) ACHN assessed as cell growth at 10 uM after 48 hr by SRB assay relative to control; conditions: read-out: Activity
[1] = Cytotoxicity against Homo sapiens (human) NCI-ADR-RES assessed as cell growth at 10 uM after 48 hr by SRB assay relative to control; conditions: read-out: Activity
SN12C = assay: Cytotoxicity against Homo sapiens (human) SN12C assessed as cell growth at 10 uM after 48 hr by SRB assay relative to control; conditions: read-out: Activity
NCI-H226 = assay: Cytotoxicity against Homo sapiens (human) NCI-H226 assessed as cell growth at 10 uM after 48 hr by SRB assay relative to control; conditions: NCI-H226, 48 h, read-out: Activity
KM12 = assay: Cytotoxicity against Homo sapiens (human) KM12 assessed as cell growth at 10 uM after 48 hr by SRB assay relative to control; conditions: KM12, 48 h, read-out: Activity
MDA-MB-468 = assay: Cytotoxicity against Homo sapiens (human) MDA-MB-468 assessed as cell growth at 10 uM after 48 hr by SRB assay relative to control; conditions: MDA-MB-468, 48 h, read-out: Activity
CAKI-1 = assay: Cytotoxicity against Homo sapiens (human) Caki1 assessed as cell growth at 10 uM after 48 hr by SRB assay relative to control; conditions: CAKI-1, 48 h, read-out: Activity
MDA-MB-435 = assay: Cytotoxicity against Homo sapiens (human) MDA-MB-435 assessed as cell growth at 10 uM after 48 hr by SRB assay relative to control; conditions: MDA-MB-435, 48 h, read-out: Activity
OVCAR-8 = assay: Cytotoxicity against Homo sapiens (human) OVCAR8 assessed as cell growth at 10 uM after 48 hr by SRB assay relative to control; conditions: OVCAR-8, 48 h, read-out: Activity
U-251 = assay: Cytotoxicity against Homo sapiens (human) U251 assessed as cell growth at 10 uM after 48 hr by SRB assay relative to control; conditions: U-251, 48 h, read-out: Activity
CCRF-CEM = assay: Cytotoxicity against Homo sapiens (human) CCRF-CEM assessed as cell growth at 10 uM after 48 hr by SRB assay relative to control; conditions: read-out: Activity
SF-268 = assay: Cytotoxicity against Homo sapiens (human) SF268 assessed as cell growth at 10 uM after 48 hr by SRB assay relative to control; conditions: SF-268, 48 h, read-out: Activity
SK-MEL-2 = assay: Cytotoxicity against Homo sapiens (human) SK-MEL-2 assessed as cell growth at 10 uM after 48 hr by SRB assay relative to control; conditions: SK-MEL-2, 48 h, read-out: Activity
TK-10 = assay: Cytotoxicity against Homo sapiens (human) TK10 assessed as cell growth at 10 uM after 48 hr by SRB assay relative to control; conditions: TK-10, 48 h, read-out: Activity
RXF 393 = assay: Cytotoxicity against Homo sapiens (human) RXF393 assessed as cell growth at 10 uM after 48 hr by SRB assay relative to control; conditions: RXF 393, 48 h, read-out: Activity
BT-549 = assay: Cytotoxicity against Homo sapiens (human) BT549 assessed as cell growth at 10 uM after 48 hr by SRB assay relative to control; conditions: BT-549, 48 h, read-out: Activity
SW-620 = assay: Cytotoxicity against Homo sapiens (human) SW620 assessed as cell growth at 10 uM after 48 hr by SRB assay relative to control; conditions: SW-620, 48 h, read-out: Activity
OVCAR-3 = assay: Cytotoxicity against Homo sapiens (human) OVCAR3 assessed as cell growth at 10 uM after 48 hr by SRB assay relative to control; conditions: OVCAR-3, 48 h, read-out: Activity
HCT-15 = assay: Cytotoxicity against Homo sapiens (human) HCT15 assessed as cell growth at 10 uM after 48 hr by SRB assay relative to control; conditions: HCT-15, 48 h, read-out: Activity
M14 = assay: Cytotoxicity against Homo sapiens (human) M14 assessed as cell growth at 10 uM after 48 hr by SRB assay relative to control; conditions: M14, 48 h, read-out: Activity
OVCAR-5 = assay: Cytotoxicity against Homo sapiens (human) OVCAR5 assessed as cell growth at 10 uM after 48 hr by SRB assay relative to control; conditions: OVCAR-5, 48 h, read-out: Activity
HCC 2998 = assay: Cytotoxicity against Homo sapiens (human) HCC2998 assessed as cell growth at 10 uM after 48 hr by SRB assay relative to control; conditions: HCC 2998, 48 h, read-out: Activity
SK-OV-3 = assay: Cytotoxicity against Homo sapiens (human) SKOV3 assessed as cell growth at 10 uM after 48 hr by SRB assay relative to control; conditions: SK-OV-3, 48 h, read-out: Activity
UACC-62 = assay: Cytotoxicity against Homo sapiens (human) UACC62 assessed as cell growth at 10 uM after 48 hr by SRB assay relative to control; conditions: UACC-62, 48 h, read-out: Activity
HCT-116 = assay: Cytotoxicity against Homo sapiens (human) HCT116 assessed as cell growth at 10 uM after 48 hr by SRB assay relative to control; conditions: HCT-116, 48 h, read-out: Activity
SR = assay: Cytotoxicity against Homo sapiens (human) SR assessed as cell growth at 10 uM after 48 hr by SRB assay relative to control; conditions: read-out: Activity
DU-145 = assay: Cytotoxicity against Homo sapiens (human) DU145 assessed as cell growth at 10 uM after 48 hr by SRB assay relative to control; conditions: DU-145, 48 h, read-out: Activity
SF-539 = assay: Cytotoxicity against Homo sapiens (human) SF539 assessed as cell growth at 10 uM after 48 hr by SRB assay relative to control; conditions: SF-539, 48 h, read-out: Activity
786-0 = assay: Cytotoxicity against Homo sapiens (human) 786-0 assessed as cell growth at 10 uM after 48 hr by SRB assay relative to control; conditions: 786-0, 48 h, read-out: Activity

| SMILES | growth at 10 µM (SK-MEL-5) [%] | growth at 10 µM (HL-60(TB)) [%] | growth at 10 µM (HT-29) [%] | growth at 10 µM (ACHN) [%] | growth at 10 µM [1] [%] | growth at 10 µM (SN12C) [%] | growth at 10 µM (NCI-H226) [%] | growth at 10 µM (KM12) [%] | growth at 10 µM (MDA-MB-468) [%] | growth at 10 µM (MDA-MB-435) [%] | growth at 10 µM (OVCAR-8) [%] | growth at 10 µM (U-251) [%] | growth at 10 µM (CCRF-CEM) [%] | growth at 10 µM (SF-268) [%] | growth at 10 µM (SK-MEL-2) [%] | growth at 10 µM (TK-10) [%] | growth at 10 µM (RXF 393) [%] | growth at 10 µM (BT-549) [%] | growth at 10 µM (SW-620) [%] | growth at 10 µM (OVCAR-3) [%] | other results |
| --- | --- | --- | --- | --- | --- | --- | --- | --- | --- | --- | --- | --- | --- | --- | --- | --- | --- | --- | --- | --- | --- |
| CCOC(=O)c1c(Nc2ccc(S(N)(=O)=O)cc2)nnc(-c2ccccc2)c1-c1ccccc1 | 94.6 | 71.2 | 118 | 97.6 | 96.8 | 104 | 102 | 104 | 97.9 | 107 | 99.8 | 95 | 81.8 | 105 | 123 | 108 | 109 | 95 | 105 | 118 | growth at 10 µM (EKVX): 105%; growth at 10 µM (CAKI-1): 83.8%; growth at 10 µM (HCT-15): 93.4%; growth at 10 µM (M14): 104%; growth at 10 µM (OVCAR-5): 116%; growth at 10 µM (HCC 2998): 96.8%; growth at 10 µM (SK-OV-3): 108%; growth at 10 µM (UACC-62): 90.2%; growth at 10 µM (HCT-116): 93.3%; growth at 10 µM (SR): 76.1%; growth at 10 µM (DU-145): 120%; growth at 10 µM (SF-539): 108% |
| CC(=O)Oc1c(C2=NN(C(C)=O)C(c3ccc(F)cc3)O2)sc2nnc(-c3ccccc3)c(-c3ccccc3)c12 (configuration not stated) | 88.2 | 83.8 | 102 | 72 | 85.3 | 80.2 | 92.4 | 81.7 | 84 | 79.6 | 101 | 105 | 39.1 | 89.6 | 99.9 | 94.1 | 88 | 65.3 | 97.4 | 96.3 | growth at 10 µM (EKVX): 113%; growth at 10 µM (786-0): 94.7%; growth at 10 µM (HCT-15): 61.1%; growth at 10 µM (M14): 102%; growth at 10 µM (OVCAR-5): 95.3%; growth at 10 µM (HCC 2998): 82.8%; growth at 10 µM (SK-OV-3): 97.6%; growth at 10 µM (UACC-62): 57.5%; growth at 10 µM (HCT-116): 80.5%; growth at 10 µM (SR): 79.3%; growth at 10 µM (DU-145): 114%; growth at 10 µM (SF-539): 104% |
| CC1=NN(C(=O)c2sc3nnc(-c4ccccc4)c(-c4ccccc4)c3c2O)C(=O)C1 | 80.2 | 69.4 | 119 | 73.2 | 16 | 93.8 | 91.9 | 71.3 | 80.5 | 83.7 | 87 | 71.7 | 49.5 | 88.3 | 110 | 103 | 95.6 | 104 | 79.4 | 84.7 | growth at 10 µM (EKVX): 74.3%; growth at 10 µM (786-0): 65.9%; growth at 10 µM (CAKI-1): 31%; growth at 10 µM (HCT-15): 49%; growth at 10 µM (M14): 87.4%; growth at 10 µM (OVCAR-5): 117%; growth at 10 µM (HCC 2998): 59.7%; growth at 10 µM (SK-OV-3): 90.6%; growth at 10 µM (UACC-62): 77.4%; growth at 10 µM (HCT-116): 89.8%; growth at 10 µM (SR): 68.6%; growth at 10 µM (DU-145): 97.8%; growth at 10 µM (SF-539): 109% |
| CC(=O)Oc1c(C2=NN(C(C)=O)C(c3ccccc3[N+](=O)[O-])O2)sc2nnc(-c3ccccc3)c(-c3ccccc3)c12 (configuration not stated) | 98.5 | 58.9 | 87.5 | 86.8 | 98.4 | 76.3 | 93 | 108 | 86.5 | 97.9 | 90.1 | 80.5 | 19.6 | 85.6 | 101 | 107 | 93.5 | 89.8 | 82.8 | 93.4 | growth at 10 µM (786-0): 102%; growth at 10 µM (CAKI-1): 98%; growth at 10 µM (HCT-15): 78%; growth at 10 µM (M14): 91.8%; growth at 10 µM (OVCAR-5): 95.1%; growth at 10 µM (HCC 2998): 120%; growth at 10 µM (SK-OV-3): 106%; growth at 10 µM (UACC-62): 80%; growth at 10 µM (HCT-116): 76.8%; growth at 10 µM (SR): 49%; growth at 10 µM (DU-145): 104%; growth at 10 µM (SF-539): 107% |
| Oc1c(-c2nnc(SCc3ccccc3)o2)sc2nnc(-c3ccccc3)c(-c3ccccc3)c12 | 99.7 | 69.8 | 89.8 | 104 | 93.5 | 99.5 | 101 | 107 | 101 | 99.4 | 104 | 122 | 66.8 | 103 | 93.1 | 92.9 | 90 | 107 | 109 | 126 | growth at 10 µM (EKVX): 122%; growth at 10 µM (786-0): 105%; growth at 10 µM (CAKI-1): 114%; growth at 10 µM (HCT-15): 93.6%; growth at 10 µM (M14): 108%; growth at 10 µM (OVCAR-5): 98.8%; growth at 10 µM (HCC 2998): 96.5%; growth at 10 µM (SK-OV-3): 100%; growth at 10 µM (UACC-62): 78.6%; growth at 10 µM (HCT-116): 83.3%; growth at 10 µM (SR): 106%; growth at 10 µM (DU-145): 112%; growth at 10 µM (SF-539): 122% |
